Reference: patent EP4768484A1, “HETEROCYCLIC FUSED RING COMPOUND, AND COMPOSITION AND USE THEREOF” (Shenzhen TargetRx, Inc., priority 2023, dated 2025)

How the values were obtained:
Assay type in all cases: cell-based
[1] = test system: Ba/F3 parental cells; assay: Cell growth inhibitory activity assay (CellTiter-Glo), Ba/F3 parental cells; settings: Mus musculus, BaF3, 72 h, CTG cell viability, read-out: IC50 Ba/F3 BCR-ABL1 Parental
Procedure, shortened: (§1)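 Ba/F3 lines stably transduced by lentivirus with WT or mutant BCR-ABL1, alongside untransduced parental Ba/F3, were seeded and incubated overnight at 37 °C, 5% CO2, then exposed to serially diluted compound for 72 h. Viability was read as ATP by CellTiter-Glo luminescence against a day-of-dosing T0 plate; IC50 from four-parameter nonlinear fit.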

[2] = molecular target: T1, Ba/F3 BCR-ABL1 WT (Homo sapiens, UniProt P00519+P11274); assay: Cell growth inhibitory activity assay (CellTiter-Glo), Ba/F3 BCR-ABL1 WT cells; settings: 72 h, CTG cell viability
T1 construct: BCR (N-terminal fusion partner of the oncoprotein); expressed in transfected cells; host or cells: Ba/F3 (lentiviral transduction, monoclonal line)
Procedure, shortened: as §1

[3] = molecular target: T2, Ba/F3 BCR-ABL1 T315I (Homo sapiens, UniProt P00519+P11274, T315I); assay: Cell growth inhibitory activity assay (CellTiter-Glo), Ba/F3 BCR-ABL1 T315I cells; settings: 72 h, CTG cell viability
T2 construct: BCR (N-terminal fusion partner of the oncoprotein); expressed in transfected cells; host or cells: Ba/F3 (lentiviral transduction, monoclonal line)
Procedure, shortened: as §1

[4] = test system: K562 cells; assay: Cell growth inhibitory activity assay (CellTiter-Glo), K562 cells; settings: Homo sapiens, 72 h, CTG cell viability
Procedure, shortened: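 Growth inhibition of human K562 cells, sourced from Nanjing Kebai (CBP60529), was assessed with Promega's CellTiter-Glo kit, which measures viability through ATP quantification. Log-phase cells went into the inner wells of 96-well plates, with PBS in edge wells, incubated overnight at 37 °C and 5% CO2, then exposed to serially diluted compound for 72 h.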

SMILES: C[C@@H]1COCc2nc3cc(C(=O)Nc4ccc(OC(F)(F)Cl)cc4)cc(-c4ccc5c(c4)C(=O)N(C)C5=O)c3n21 [T-62, (R)-N-(4-(chlorodifluoromethoxy)phenyl)-4-methyl-6-(2-methyl-1,3-dioxoisoindolin-5-yl)-3,4-dihydro-1H-benzo[4,5]imidazo[2,1-c][1,4]oxazine-8-carboxamide]
- IC50 [1]: > 1000 nM
- IC50 [2]: 5 to 50 nM
- IC50 [3]: 50 to 1000 nM
- IC50 [4]: ≤ 5 nM

SMILES: C[C@@H]1COCc2nc3cc(C(=O)Nc4ccc(OC(F)(F)Cl)cc4)cc(-c4cnc5c(c4)-c4nn(-c6cccnc6)cc4C5)c3n21 [T-63]
- IC50 [1]: > 1000 nM
- IC50 [2]: ≤ 5 nM
- IC50 [3]: > 1000 nM
- IC50 [4]: ≤ 5 nM

SMILES: C[C@@H]1COCc2nc3cc(C(=O)Nc4ccc(OC(F)(F)Cl)cc4)cc(-c4cnc5c(c4)-c4nn(-c6ccncc6)cc4C5)c3n21 [T-64]
- IC50 [1]: > 1000 nM
- IC50 [2]: ≤ 5 nM
- IC50 [3]: > 1000 nM
- IC50 [4]: ≤ 5 nM

SMILES: COc1nc(OC)nc(-n2cc3c(n2)-c2cc(-c4cc(C(=O)Nc5ccc(OC(F)(F)Cl)cc5)cc5nc6n(c45)[C@H](C)COC6)cnc2C3)n1 [T-70, (R)-N-(4-(chlorodifluoromethoxy)phenyl)-6-(2-(4,6-dimethoxy-1,3,5-triazin-2-yl)-2,4-dihydropyrazolo[3',4':3,4]cyclopenta[1,2-b]pyridin-7-yl)-4-methyl-3,4-dihydro-1H-benzo[4,5]imidazo[2,1-c][1,4]oxazine-8-carboxamide]
- IC50 [1]: > 1000 nM
- IC50 [2]: ≤ 5 nM
- IC50 [3]: 5 to 50 nM
- IC50 [4]: ≤ 5 nM

SMILES: C[C@@H]1COCc2nc3cc(C(=O)Nc4ccc(OC(F)(F)Cl)cc4)cc(-c4cnc5c(c4)-c4nn(-c6nccc(C(F)(F)F)n6)cc4C5)c3n21 [T-72, (R)-N-(4-(chlorodifluoromethoxy)phenyl)-4-methyl-6-(2-(4-(trifluoromethyl)pyrimidin-2-yl)-2,4-dihydropyrazolo[3',4':3,4]cyclopenta[1,2-b]pyridin-7-yl)-3,4-dihydro-1H-benzo[4,5]imidazo[2,1-c][1,4]oxazine-8-carboxamide]
- IC50 [1]: > 1000 nM
- IC50 [2]: ≤ 5 nM
- IC50 [3]: ≤ 5 nM
- IC50 [4]: ≤ 5 nM

SMILES: Cc1cnc(-n2cc3c(n2)-c2cc(-c4cc(C(=O)Nc5ccc(OC(F)(F)Cl)cc5)cc5nc6n(c45)[C@H](C)COC6)cnc2C3)nc1 [T-74, (R)-N-(4-(chlorodifluoromethoxy)phenyl)-4-methyl-6-(2-(5-methylpyrimidin-2-yl)-2,4-dihydropyrazolo[3',4':3,4]cyclopenta[1,2-b]pyridin-7-yl)-3,4-dihydro-1H-benzo[4,5]imidazo[2,1-c][1,4]oxazine-8-carboxamide]
- IC50 [1]: > 1000 nM
- IC50 [2]: ≤ 5 nM
- IC50 [3]: ≤ 5 nM
- IC50 [4]: ≤ 5 nM

SMILES: Cc1cc(C(F)(F)F)nc(-n2cc3c(n2)-c2cc(-c4cc(C(=O)Nc5ccc(OC(F)(F)Cl)cc5)cc5nc6n(c45)[C@H](C)COC6)cnc2C3)n1 [T-75, (R)-N-(4-(chlorodifluoromethoxy)phenyl)-4-methyl-6-(2-(4-methyl-6-(trifluoromethyl)pyrimidin-2-yl)-2,4-dihydropyrazolo[3',4':3,4]cyclopenta[1,2-b]pyridin-7-yl)-3,4-dihydro-1H-benzo[4,5]imidazo[2,1-c][1,4]oxazine-8-carboxamide]
- IC50 [1]: > 1000 nM
- IC50 [2]: ≤ 5 nM
- IC50 [3]: ≤ 5 nM
- IC50 [4]: ≤ 5 nM

SMILES: COc1cnc(-n2cc3c(n2)-c2cc(-c4cc(C(=O)Nc5ccc(OC(F)(F)Cl)cc5)cc5nc6n(c45)[C@H](C)COC6)cnc2C3)nc1 [T-77, (R)-N-(4-(chlorodifluoromethoxy)phenyl)-6-(2-(5-methoxypyrimidin-2-yl)-2,4-dihydropyrazolo[3',4':3,4]cyclopenta[1,2-b]pyridin-7-yl)-4-methyl-3,4-dihydro-1H-benzo[4,5]imidazo[2,1-c][1,4]oxazine-8-carboxamide]
- IC50 [1]: > 1000 nM
- IC50 [2]: ≤ 5 nM
- IC50 [3]: ≤ 5 nM
- IC50 [4]: ≤ 5 nM

SMILES: C[C@@H]1COCc2nc3cc(C(=O)Nc4ccc(OC(F)(F)Cl)cc4)cc(-c4cnc5c(c4)-c4nn(-c6ncc(C(F)(F)F)cn6)cc4C5)c3n21 [T-79, (R)-N-(4-(chlorodifluoromethoxy)phenyl)-4-methyl-6-(2-(5-(trifluoromethyl)pyrimidin-2-yl)-2,4-dihydropyrazolo[3',4':3,4]cyclopenta[1,2-b]pyridin-7-yl)-3,4-dihydro-1H-benzo[4,5]imidazo[2,1-c][1,4]oxazine-8-carboxamide]
- IC50 [1]: > 1000 nM
- IC50 [2]: ≤ 5 nM
- IC50 [3]: ≤ 5 nM
- IC50 [4]: ≤ 5 nM

SMILES: C[C@@H]1COCc2nc3cc(C(=O)Nc4ccc(OC(F)(F)Cl)cc4)cc(-c4cnc5c(c4)-c4nn(-c6ncc(-c7ccccc7)cn6)cc4C5)c3n21 [T-80, (R)-N-(4-(chlorodifluoromethoxy)phenyl)-4-methyl-6-(2-(5-phenylpyrimidin-2-yl)-2,4-dihydropyrazolo[3',4':3,4]cyclopenta[1,2-b]pyridin-7-yl)-3,4-dihydro-1H-benzo[4,5]imidazo[2,1-c][1,4]oxazine-8-carboxamide]
- IC50 [1]: > 1000 nM
- IC50 [2]: ≤ 5 nM
- IC50 [3]: ≤ 5 nM
- IC50 [4]: ≤ 5 nM

SMILES: C[C@@H]1COCc2nc3cc(C(=O)Nc4ccc(OC(F)(F)Cl)cc4)cc(-c4cnc5c(c4)-c4nn(-c6nccc(-c7ccccc7)n6)cc4C5)c3n21 [T-81, (R)-N-(4-(chlorodifluoromethoxy)phenyl)-4-methyl-6-(2-(4-phenyloyrimidin-2-yl)-2,4-dihydropyrazolo[3',4':3,4]cyclopenta[1,2-b]pyridin-7-yl)-3,4-dihydro-1H-benzo[4,5]imidazo[2,1-c][1,4]oxazine-8-carboxamide]
- IC50 [1]: > 1000 nM
- IC50 [2]: ≤ 5 nM
- IC50 [3]: ≤ 5 nM
- IC50 [4]: ≤ 5 nM

SMILES: C[C@@H]1COCc2nc3cc(C(=O)Nc4ccc(OC(F)(F)Cl)cc4)cc(-c4cnc5c(c4)-c4c(cnn4-c4ncc6ccccc6n4)C5)c3n21 [T-82-A, (R)-N-(4-(chlorodifluoromethoxy)phenyl)-4-methyl-6-(1-(guinazolin-2-yl)-1,4-dihvdropyrazolo[3',4':3,4]cyclopenta[1,2-b]pyridin-7-yl)-3,4-dihydro-1H-benzo[4,5]imidazo[2,1-c][1,4]oxazine-8-carboxamide]
- IC50 [1]: > 1000 nM
- IC50 [2]: ≤ 5 nM
- IC50 [3]: 5 to 50 nM
- IC50 [4]: ≤ 5 nM

SMILES: C[C@@H]1COCc2nc3cc(C(=O)Nc4ccc(OC(F)(F)Cl)cc4)cc(-c4cnc5c(c4)-c4nn(-c6ncc7ccccc7n6)cc4C5)c3n21 [T-82-B, (R)-N-(4-(chlorodifluoromethoxy)phenyl)-4-methyl-6-(2-(quinazolin-2-yl)-2,4-dihydropyrazolo[3',4':3,4]cyclopenta[1,2-b]pyridin-7-yl)-3,4-dihydro-1H-benzo[4,5]imidazo[2,1-c][1,4]oxazine-8-carboxamide]
- IC50 [1]: > 1000 nM
- IC50 [2]: ≤ 5 nM
- IC50 [3]: ≤ 5 nM
- IC50 [4]: ≤ 5 nM

SMILES: C[C@@H]1COCc2nc3cc(C(=O)Nc4ccc(OC(F)(F)Cl)cc4)cc(-c4cnc5c(c4)-c4nn(-c6ncc7ccsc7n6)cc4C5)c3n21 [T-83, (R)-N-(4-(chlorodifluoromethoxy)phenyl)-4-methyl-6-(2-(thieno[2,3-d]pyrimidin-2-yl)-2,4-dihydropyrazolo[3',4':3,4]cyclopenta[1,2-b]pyridin-7-yl)-3,4-dihydro-1H-benzo[4,5]imidazo[2,1-c][1,4]oxazine-8-carboxamide]
- IC50 [1]: > 1000 nM
- IC50 [2]: ≤ 5 nM
- IC50 [3]: ≤ 5 nM
- IC50 [4]: ≤ 5 nM
